Data on four compounds can be found in US20260001875A1, “AMINOPYRIMIDINYL DERIVATIVES FOR THE TREATMENT OF PARKINSON'S DISEASE” (UNIVERSITY OF DUNDEE, priority 2022, published 2026).

Experiment [1] has as its system Rab10 pThr73. The experiment is described as follows: Rab10 Thr73 dephosphorylation (immunoblot) in WT MEFs. It is filed as cell-based, mouse. The conditions noted are these: Mus musculus, read-out: pRab10 inhibited in WT MEFs. The method, boiled down:
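Wild-type mouse embryonic fibroblasts in 6-well plates were treated with LRRK2 PROTACs, with two biological replicates per condition. Cells were washed in PBS and lysed on ice in buffer containing phosphatase and protease inhibitors plus 1% Triton X-100, then clarified at 15,000 g. Rab10 Thr73 phosphorylation was measured by quantitative immunoblotting of 15 to 20 μg protein on 4-12% Bis-Tris gels.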

The test system of experiment [2] is Rab10 pThr73. The experiment is described as follows: Rab10 Thr73 dephosphorylation (immunoblot) in LRRK2^G2019S MEFs. It is filed as cell-based. Particulars: Mus musculus, read-out: pRab10 inhibited in LRRK2^G2019S MEFs. (In general: Immunoblotting shows a protein as a band on a membrane.)
For experiment [3], the system named is Rab10 pThr73. Described as above. It is filed as cell-based, mouse. The conditions noted are these: Mus musculus, read-out: pRab10 inhibited in LRRK2^G2019S MEFs.

As for `CNc1nc(Nc2ccc(C(=O)N3CCN(CCOCCOCCSC(C)(C)[C@H](NC(=O)C4(F)CC4)C(=O)N4C[C@H](O)C[C@H]4C(=O)N[C@@H](C)c4ccc(-c5scnc5C)cc4)CC3)cc2OC)ncc1Cl` [XL01119, (2S,4R)-1-((R)-3-((2-(2-(2-(4-(4-((5-chloro-4-(methylamino)pyrimidin-2-yl)amino)-3-methoxybenzoyl)piperazin-1-yl)ethoxy)ethoxy)ethyl)thio)-2-(1-fluorocyclopropane-1-carboxamido)-3-methylbutanoyl)-4-hydroxy-N—((S)-1-(4-(4-methylthiazol-5-yl)phenyl)ethyl)pyrrolidine-2-carboxamide], the inhibition at 0.033 µM lay in the range of 0 to 40% in experiment [1] (33 nM/4 h treatment), 0 to 60% in experiment [1] (33 nM/24 h treatment), 0 to 70% in experiment [2] (33 nM/4 h treatment) and 0 to 90% in experiment [2] (33 nM/24 h treatment). Also, the inhibition at 1 µM in experiment [1] (1 μM/4 h treatment) lay in the range of 10 to 95%; in experiment [1] (1 μM/24 h treatment), 30 to 100%; in experiment [3] (1 μM/4 h treatment), 20 to 100%; in experiment [3] (1 μM/24 h treatment) it was 10 to 100%.

For `CNc1nc(Nc2ccc(C(=O)N3CCN(CCOCCOCCSC(C)(C)[C@H](NC(=O)C4(F)CC4)C(=O)N4C[C@H](O)C[C@H]4C(=O)NCc4ccc(-c5scnc5C)c(F)c4)CC3)cc2OC)ncc1Cl` [XL01123, (2S,4R)-1-((R)-3-((2-(2-(2-(4-(4-f((5-chloro-4-(methylamino)pyrimidin-2-yl)amino)-3-methoxybenzoyl)piperazin-1-yl)ethoxyl)ethoxy)ethyl)thio)-2-(1-fluorocyclopropane-1-carboxamido)-3-methylbutanoyl)-N-(3-fluoro-4-(4-methylthiazol-5-yl)benzyl)-4-hydroxypyrrolidine-2-carboxamide], the inhibition at 0.033 µM lay in the range of 0 to 40% in experiment [1] (33 nM/4 h treatment), 0 to 60% in experiment [1] (33 nM/24 h treatment), 0 to 70% in experiment [2] (33 nM/4 h treatment) and 0 to 90% in experiment [2] (33 nM/24 h treatment). Moreover, the inhibition at 1 µM in experiment [1] (1 μM/4 h treatment) lay in the range of 10 to 95%; in experiment [1] (1 μM/24 h treatment) it was 30 to 100%; in experiment [3] (1 μM/4 h treatment), 20 to 100%; in experiment [3] (1 μM/24 h treatment), 10 to 100%.

On to `CNc1nc(Nc2ccc(C(=O)N3CCN(CCOCCOCCSC(C)(C)[C@@H](NC(=O)C4(F)CC4)C(=O)N4C[C@H](O)C[C@H]4C(=O)NCc4ccc(-c5scnc5C)cc4)CC3)cc2OC)ncc1C(F)(F)F` [XL01078B, (2S,4R)-1-((S)-2-(1-fluorocyclopropane-1-carboxamido)-3-((2-(2-(2-(4-(3-methoxy-4-((4-(methylamino)-5-(trifluoromethyl)pyrimidin-2-yl)amino)benzoyl)piperazin-1-yl)ethoxy)ethoxy)ethyl)thio)-3-methylbutanoyl)-4-hydroxy-N-(4-(4-methylthiazol-5-yl)benzyl)pyrrolidine-2-carboxamide], for which the inhibition at 0.033 µM in experiment [1] (33 nM/4 h treatment) is 0 to 40%; in experiment [1] (33 nM/24 h treatment) it was 0 to 60%; in experiment [2] (33 nM/4 h treatment), 0 to 70%; in experiment [2] (33 nM/24 h treatment), 0 to 90%. Also, the inhibition at 1 µM in experiment [1] (1 μM/4 h treatment) was 10 to 95%; in experiment [1] (1 μM/24 h treatment) it was 30 to 100%; in experiment [3] (1 μM/4 h treatment) it was 20 to 100%; in experiment [3] (1 μM/24 h treatment), 10 to 100%.

Turning to `CNc1nc(Nc2ccc(C(=O)N3CCN(Cc4ccc(CSC(C)(C)[C@H](NC(=O)C5(F)CC5)C(=O)N5C[C@H](O)C[C@H]5C(=O)NCc5ccc(-c6scnc6C)c(F)c5)cc4)CC3)cc2OC)ncc1Cl` [XL01121, (2S,4R)-1-((R)-3-((4-((4-(4-((5-chloro-4-(methylamino)pyrimidin-2-yl)amino)-3-methoxybenzoyl)piperazin-1-yl)methyl)benzyl)thio)-2-(1-fluorocyclopropane-1-carboxamido)-3-methylbutanoyl)-N-(3-fluoro-4-(4-methylthiazol-5-yl)benzyl)-4-hydroxypyrrolidine-2-carboxamide], the inhibition at 0.033 µM is 0 to 40% in experiment [1] (33 nM/4 h treatment), 0 to 60% in experiment [1] (33 nM/24 h treatment), 0 to 70% in experiment [2] (33 nM/4 h treatment) and 0 to 90% in experiment [2] (33 nM/24 h treatment). Further, the inhibition at 1 µM in experiment [1] (1 μM/4 h treatment) lay within 10 to 95%; in experiment [1] (1 μM/24 h treatment) it was 30 to 100%; in experiment [3] (1 μM/4 h treatment) it was 20 to 100%; in experiment [3] (1 μM/24 h treatment), 10 to 100%.
